The numbers were not newly measured in patent US8765149B2, “Low-oil pharmaceutical emulsion compositions comprising progestogen” (Besins Healthcare Luxembourg Sarl, priority 2010, dated 2014), which cites them from elsewhere.

This series concerns TBI patients. Conditions: two recent clinical trials.

For `CC(=O)[C@H]1CC[C@H]2[C@@H]3CCC4=CC(=O)CC[C@]4(C)[C@H]3CC[C@]12C` [progesterone, pregn-4-ene-3,20-dione], the “mortality of TBI patients” value was “decreased mortality”; the “safety in TBI patients” value was “safe and well tolerated”.
